The record followed here is patent US10028960B2, “Pyrimidine compounds as JAK kinase inhibitors” (THERAVANCE BIOPHARMA R&D IP, LLC, priority 2016, dated 2018).

Where two headings read alike, the source gives them in different places.

Data set [1] can be described thus: Determination of absorption in cannulated rats. It counts as in vivo, Sprague Dawley rats. Particulars: rat; for bioavailability: Sprague Dawley, plasma (jugular vein), oral vs IV, read-out: oral bioavailability (F %); for absorption at the portal vein (Fa %): oral. The method, then: Oral bioavailability (F %), fraction absorbed (Fa %) and fraction escaping hepatic clearance (Fh %) were determined in Sprague Dawley rats from the following two studies:
(1) Pharmacokinetics in rats following an IV dose of test compound: Following IV dosing, plasma samples were typically collected from 0-6 hr. Drug levels were determined using an LC-MS-MS method. The resulting drug levels were used to compute the IV pharmacokinetic parameters: AUC IV and Dose IV.
(2) Rats that have been cannulated in their portal vein (PV) and also in their jugular vein (JV) were dosed orally with test compound. Following oral dosing, plasma samples were typically collected from 0-6 hr from both the portal vein and the jugular vein. Drug levels were determined using an LC-MS-MS method. The resulting drug levels were used to compute the following pharmacokinetic parameters: AUC PO PV, AUC PO JV, and Dose PO.
Using data derived from the above studies, the oral bioavailability F %, and the quantities Fa % and Fh % were calculated from the following formulas: F %=(AUC PO JV/AUC IV)*(Dose IV/Dose PO)*100 Fa %=(AUC PO PV/AUC IV)*(Dose IV/Dose PO)*100 Fh %=AUC PO JV/AUC PO PV
AUC PO JV=Area under the curve following oral dose and plasma collected from the jugular vein
AUC PO PV=Area under the curve following oral dose and plasma collected from the portal vein
AUC IV=Area under the curve following an intravenous dose
Dose IV=Intravenous Dose in mg/kg
Dose PO=Oral Dose in mg/kg

The target of a further data set is JAK3 (Homo sapiens (Human), UniProt P52333). The data set can be described thus: LanthaScreen JAK biochemical assay, JAK3. The method, then: (§1) A panel of four LanthaScreen JAK biochemical assays (JAK1, 2, 3 and Tyk2) were carried in a common kinase reaction buffer (50 mM HEPES, pH 7.5, 0.01% Brij-35, 10 mM MgCl2, and 1 mM EGTA). Recombinant GST-tagged JAK enzymes and a GFP-tagged STAT1 peptide substrate were obtained from Life Technologies.
(Time-resolved FRET reads energy transfer from a long-lived donor to a nearby acceptor.)

Data set [2] has as its system oxazolone-induced colitis. The data set can be described thus: Mouse model of oxazolone-induced colitis. It counts as in vivo, BALB/C mice. The settings on record: mouse, PO, 1, 3, and/or 10 mg/kg BID. The method, then: Oxazolone-induced colitis is an experimental model that has a histological resemblance to human ulcerative colitis (Heller et al. […], 2002, 17, 629-638). Adult BALB/C mice from Harlan were used in the assay. On day 1, animals were lightly anesthetized with isoflurane and the hairs between the shoulder were carefully removed before oxazolone (4%, 150 μL, 4:1 acetone: olive oil formulation) or vehicle solution was slowly applied for skin sensitization. Seven days after skin sensitization, the mice were fasted overnight, anesthetized with isoflurane inhalation, and a 1 mL syringe equipped with a 3.5-F catheter, filled with oxazolone solution, was inserted carefully about 4 cm into the colon of the mouse. Following insertion, 50 μL of the oxazolone solution (1%, 1:1 ethanol:water formulation) was injected very slowly (over 30 sec using an injection pump) into the colon. The catheter was removed and the mice were held vertically (head down) for 2 min to ensure that the entire oxazolone solution remained inside the colon. Drug treatment (PO, BID or TID) or vehicle was initiated a day prior to the oxazolone intrarectal (IR) challenge. Two-day post oxazolone intrarectal challenge, the Disease Activity Index (DAI) was assessed by treatment-blinded experimenters for each mouse according to the criteria score: stool consistency score (0, normal; 2, loose; 4, diarrhea), gross bleeding score (0, absence; 2, blood tinged; 4, presence), and weight loss score (0, none; 1, 1%-5%; 2, 5%-10%; 3, 10%-20%; 4, more than 20%); DAI=average of (stool consistency score+gross bleeding score+weight loss score).
Selected compounds of the invention were tested in the assay. Efficacy in the model is evidenced by a decrease in DAI score as compared with the score from vehicle treated animals.

Another data set concerns the target Tyk2 (Homo sapiens (Human), UniProt P29597). The data set can be described thus: LanthaScreen JAK biochemical assay, Tyk2. The settings on record: read-out: Tyk 2 (pKi) (converted). The method, then:
as §1

In data set [3] the test system is IL-13 induced STAT6 phosphorylation in HT-29 human colorectal adenocarcinoma cells. The data set can be described thus: Cellular JAK potency assay: inhibition of IL-13 induced STAT6 phosphorylation. Particulars: Homo sapiens; IL-13 induced STAT6 phosphorylation, HT-29 cells; read-out: HT-29 (pIC50) (converted). It counts as cell-based.
Another data set deals with JAK1 (Homo sapiens (Human), UniProt P23458). The data set can be described thus: LanthaScreen JAK biochemical assay, JAK1. The settings on record: for Ki: read-out: JAK 1 (pKi) (converted). The method, then:
as §1

A further data set addresses JAK2 (Homo sapiens (Human), UniProt O60674). The data set can be described thus: LanthaScreen JAK biochemical assay, JAK2. On the procedure:
as §1

Data set [4] in a line: Dynamic moisture sorption assessment. It counts as physicochemical. The settings on record: for weight gain: humidity range of 5% to 90% relative humidity, 25° C. The method, then: Dynamic moisture sorption (DMS) measurement was performed using a VTI atmospheric microbalance, SGA-100 system (VTI Corp., Hialeah, Fla. 33016). A weighed sample was used and the humidity was lowest possible value (close to 0% RH) at the start of the analysis. The DMS analysis consisted of an initial drying step (0% RH) for 120 minutes, followed by two cycles of sorption and desorption with a scan rate of 5% RH/step over the humidity range of 5% RH to 90% RH. The DMS run was performed isothermally at 25° C.

Data set [5] concerns mouse splenic NK, B and T cells. The settings on record: in vivo, po. On the procedure:
Depletion of mouse splenic cells is an experimental model of immunosuppression (Kudlacz et al., Am. J. of Transplantation, 2004, 4, 51-57). The compound of Example 2 was assessed in the mouse splenic cell model following the same treatment paradigm as that used in the oxazolone-induced colitis model (Assay 8).
The compound (1, 10 and 100 mg/kg, BID) and tofacitinib (30 and 60 mg/kg, BID) as a positive control were dosed orally for three days to naïve mice. Spleens were harvested 1 h post last dose and crushed immediately for cell subtype staining. Prior to fixation, fluorophore-labelled antibodies for CD19 (FITC; B cells), CD3e (PE; pan T cells) and DX5 (APC; NK cells) were incubated with splenocyte samples from each animal to allow for simultaneous, multiple subtype % analysis on the flow cytometer. The number of total spleen cells for each animal was measured by Scepter™ 2.0 Handheld Automated Cell Counter.
The absolute number of lymphocyte subtype population (e.g., splenic B, T and NK cells) was calculated from the percentage of each subtype times total spleen cells for each animal. A one way ANOVA, with Dunnett's post hoc test, was used to compare the splenic lymphocytes number of the vehicle and test compound groups. The a level was set at p<0.05. Data were presented as the mean±SEM for each group.

Where [6] appears, read: read-out: JAK 3 (pKi) (converted).

Chain of JAK1 (P23458 whole entry): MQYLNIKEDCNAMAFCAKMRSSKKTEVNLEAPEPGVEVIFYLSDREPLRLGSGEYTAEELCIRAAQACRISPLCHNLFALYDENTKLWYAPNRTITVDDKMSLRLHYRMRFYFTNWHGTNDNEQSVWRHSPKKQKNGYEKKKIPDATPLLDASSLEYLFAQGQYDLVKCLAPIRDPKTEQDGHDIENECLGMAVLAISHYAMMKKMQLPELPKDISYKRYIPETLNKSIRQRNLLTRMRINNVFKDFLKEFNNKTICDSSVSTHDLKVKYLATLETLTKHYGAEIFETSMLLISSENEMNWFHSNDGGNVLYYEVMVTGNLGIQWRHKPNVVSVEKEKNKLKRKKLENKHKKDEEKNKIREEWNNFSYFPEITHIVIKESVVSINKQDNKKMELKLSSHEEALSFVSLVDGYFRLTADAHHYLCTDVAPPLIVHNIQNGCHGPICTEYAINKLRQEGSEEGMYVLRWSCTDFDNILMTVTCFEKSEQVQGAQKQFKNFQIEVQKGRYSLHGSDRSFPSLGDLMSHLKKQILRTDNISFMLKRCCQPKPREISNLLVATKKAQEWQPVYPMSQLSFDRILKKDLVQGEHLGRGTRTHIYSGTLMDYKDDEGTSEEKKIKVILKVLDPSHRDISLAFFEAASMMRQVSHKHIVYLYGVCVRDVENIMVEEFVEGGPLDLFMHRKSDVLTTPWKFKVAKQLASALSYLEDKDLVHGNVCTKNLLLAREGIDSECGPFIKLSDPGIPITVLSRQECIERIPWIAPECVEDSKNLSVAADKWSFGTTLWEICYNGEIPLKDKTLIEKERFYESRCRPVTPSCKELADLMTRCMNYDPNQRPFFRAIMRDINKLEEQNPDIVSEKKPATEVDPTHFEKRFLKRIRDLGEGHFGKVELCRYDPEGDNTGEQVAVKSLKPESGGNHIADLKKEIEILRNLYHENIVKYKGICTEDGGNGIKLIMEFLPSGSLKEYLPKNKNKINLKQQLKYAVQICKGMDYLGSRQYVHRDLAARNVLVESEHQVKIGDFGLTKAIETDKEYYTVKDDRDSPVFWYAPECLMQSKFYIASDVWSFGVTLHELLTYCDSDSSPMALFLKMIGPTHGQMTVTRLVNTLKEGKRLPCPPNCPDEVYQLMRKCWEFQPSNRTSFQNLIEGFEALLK
Chain of JAK2 (O60674 whole entry): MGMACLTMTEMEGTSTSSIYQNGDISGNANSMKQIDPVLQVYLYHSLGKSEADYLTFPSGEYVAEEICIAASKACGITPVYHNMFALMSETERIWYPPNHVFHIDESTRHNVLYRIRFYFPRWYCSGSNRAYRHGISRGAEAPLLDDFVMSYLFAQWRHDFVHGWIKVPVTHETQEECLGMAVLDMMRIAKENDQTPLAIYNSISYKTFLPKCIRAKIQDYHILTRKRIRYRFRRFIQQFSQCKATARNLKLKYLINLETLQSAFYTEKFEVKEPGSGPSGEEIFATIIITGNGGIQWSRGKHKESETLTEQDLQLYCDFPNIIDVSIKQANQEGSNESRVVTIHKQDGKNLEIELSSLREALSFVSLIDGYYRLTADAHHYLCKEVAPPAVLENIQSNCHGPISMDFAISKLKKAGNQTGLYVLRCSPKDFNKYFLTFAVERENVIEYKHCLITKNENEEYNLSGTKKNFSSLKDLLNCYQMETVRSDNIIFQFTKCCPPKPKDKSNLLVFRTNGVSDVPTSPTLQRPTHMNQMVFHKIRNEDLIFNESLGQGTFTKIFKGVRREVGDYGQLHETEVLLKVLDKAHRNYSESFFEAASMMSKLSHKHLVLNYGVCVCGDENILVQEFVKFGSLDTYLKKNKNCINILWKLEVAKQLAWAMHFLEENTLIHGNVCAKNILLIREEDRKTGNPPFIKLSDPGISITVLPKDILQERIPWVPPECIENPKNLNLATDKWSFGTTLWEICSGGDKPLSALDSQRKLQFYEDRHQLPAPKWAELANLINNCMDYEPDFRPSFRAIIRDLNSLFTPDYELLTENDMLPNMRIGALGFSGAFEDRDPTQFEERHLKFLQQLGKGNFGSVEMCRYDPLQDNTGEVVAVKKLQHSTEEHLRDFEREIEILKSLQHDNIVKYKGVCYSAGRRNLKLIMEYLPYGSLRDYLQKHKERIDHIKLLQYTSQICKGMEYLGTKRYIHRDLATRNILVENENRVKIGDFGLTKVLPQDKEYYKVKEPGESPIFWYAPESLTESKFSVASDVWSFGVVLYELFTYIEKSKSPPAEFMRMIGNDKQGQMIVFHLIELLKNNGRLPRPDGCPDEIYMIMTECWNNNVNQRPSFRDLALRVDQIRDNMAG
Chain of Tyk2 (P29597 whole entry): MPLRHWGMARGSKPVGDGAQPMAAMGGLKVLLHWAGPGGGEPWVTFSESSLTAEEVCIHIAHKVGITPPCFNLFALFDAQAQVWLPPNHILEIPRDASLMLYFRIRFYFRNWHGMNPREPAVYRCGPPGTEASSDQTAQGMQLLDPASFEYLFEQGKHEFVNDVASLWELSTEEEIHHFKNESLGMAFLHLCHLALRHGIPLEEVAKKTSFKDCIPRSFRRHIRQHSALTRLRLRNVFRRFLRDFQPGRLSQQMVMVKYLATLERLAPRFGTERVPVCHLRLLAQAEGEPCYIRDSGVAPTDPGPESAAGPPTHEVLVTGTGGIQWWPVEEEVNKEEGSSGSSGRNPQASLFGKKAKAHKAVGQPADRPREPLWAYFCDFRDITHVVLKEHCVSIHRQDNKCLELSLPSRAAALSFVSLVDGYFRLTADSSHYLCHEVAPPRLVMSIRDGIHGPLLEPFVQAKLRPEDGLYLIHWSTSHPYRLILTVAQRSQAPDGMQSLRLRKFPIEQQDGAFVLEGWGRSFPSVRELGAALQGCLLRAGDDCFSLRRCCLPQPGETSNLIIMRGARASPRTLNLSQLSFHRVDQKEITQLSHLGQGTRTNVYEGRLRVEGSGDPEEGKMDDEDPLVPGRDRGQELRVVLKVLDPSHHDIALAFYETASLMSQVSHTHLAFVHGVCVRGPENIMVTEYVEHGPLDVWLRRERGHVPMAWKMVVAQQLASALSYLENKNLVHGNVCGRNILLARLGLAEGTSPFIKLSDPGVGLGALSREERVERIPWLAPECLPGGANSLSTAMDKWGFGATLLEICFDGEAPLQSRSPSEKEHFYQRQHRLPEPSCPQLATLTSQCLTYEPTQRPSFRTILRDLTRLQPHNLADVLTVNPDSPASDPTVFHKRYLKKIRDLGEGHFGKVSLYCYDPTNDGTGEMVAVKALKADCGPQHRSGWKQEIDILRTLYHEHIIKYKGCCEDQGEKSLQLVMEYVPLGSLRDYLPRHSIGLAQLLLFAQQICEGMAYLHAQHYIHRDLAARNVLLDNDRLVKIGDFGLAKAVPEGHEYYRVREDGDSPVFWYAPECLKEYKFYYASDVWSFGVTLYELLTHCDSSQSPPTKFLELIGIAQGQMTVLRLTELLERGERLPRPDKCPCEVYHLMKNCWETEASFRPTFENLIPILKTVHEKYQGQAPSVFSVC
Chain of JAK3 (P52333 whole entry): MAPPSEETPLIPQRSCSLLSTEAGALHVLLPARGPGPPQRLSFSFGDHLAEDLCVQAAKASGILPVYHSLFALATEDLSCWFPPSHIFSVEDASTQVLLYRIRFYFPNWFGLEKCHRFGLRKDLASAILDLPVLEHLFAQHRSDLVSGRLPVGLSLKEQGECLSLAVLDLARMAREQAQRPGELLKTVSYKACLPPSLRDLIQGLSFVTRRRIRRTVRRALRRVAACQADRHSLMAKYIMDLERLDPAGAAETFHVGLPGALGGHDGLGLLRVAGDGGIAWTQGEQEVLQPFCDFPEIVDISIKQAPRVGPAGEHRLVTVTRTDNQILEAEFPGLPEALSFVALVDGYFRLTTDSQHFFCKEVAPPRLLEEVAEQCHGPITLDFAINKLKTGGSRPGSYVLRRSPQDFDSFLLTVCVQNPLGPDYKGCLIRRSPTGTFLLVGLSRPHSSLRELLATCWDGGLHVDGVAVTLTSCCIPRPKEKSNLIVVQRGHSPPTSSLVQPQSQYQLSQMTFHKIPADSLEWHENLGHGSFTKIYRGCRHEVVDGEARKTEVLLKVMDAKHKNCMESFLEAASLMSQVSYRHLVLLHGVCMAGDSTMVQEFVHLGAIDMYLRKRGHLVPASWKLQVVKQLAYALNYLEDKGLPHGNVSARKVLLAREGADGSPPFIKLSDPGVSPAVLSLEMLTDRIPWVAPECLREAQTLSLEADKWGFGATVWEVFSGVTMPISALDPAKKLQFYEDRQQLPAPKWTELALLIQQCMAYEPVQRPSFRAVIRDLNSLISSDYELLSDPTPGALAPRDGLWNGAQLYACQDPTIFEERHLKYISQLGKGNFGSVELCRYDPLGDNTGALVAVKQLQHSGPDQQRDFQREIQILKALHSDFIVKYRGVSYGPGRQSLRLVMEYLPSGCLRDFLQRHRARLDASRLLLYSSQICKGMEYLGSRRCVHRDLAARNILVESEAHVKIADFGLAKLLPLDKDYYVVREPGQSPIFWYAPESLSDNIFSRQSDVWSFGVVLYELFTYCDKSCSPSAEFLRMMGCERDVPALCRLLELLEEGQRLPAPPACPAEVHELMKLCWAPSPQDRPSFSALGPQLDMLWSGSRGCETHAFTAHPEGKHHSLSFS

For `COCCS(=O)(=O)N1[C@@H]2CCC[C@H]1C[C@H](N(C)c1nc(Nc3cc(CO)[nH]n3)cc(OC)n1)C2` [Example 4, (3-((6-methoxy-2-(((1R,3s,5S)-9-((2-methoxyethyl)sulfonyl)-9-azabicyclo[3.3.1]nonan-3-yl)(methyl)amino)pyrimidin-4-yl)amino)-1H-pyrazol-5-yl)methanol], the bioavailability (as a rule, the share of a dose that reaches the circulation, judged against a reference dose that is usually intravenous) in [1] is below 5%. In data set [1], the “absorption at the portal vein (Fa %)” value is reported as “greater than 40%”. Also, the values for the Ki on JAK3 (setting [6]), on Tyk2 and on JAK1 were 1 to 10 nM, 0.1 to 1 nM and 0.1 to 1 nM, respectively. Also, the “decrease in DAI score as compared with vehicle treated animals” value in [2] is listed as “statistically significant decrease”. For the same compound, in [3], the IC50 is 31.6 to 200 nM. The “JAK 2 (pKi)” value at JAK2 is “A (A represents a pKi value≥10 (Ki≤0.1 nM))”.

Consider `COc1cc(Nc2cc(CO)[nH]n2)nc(N(C)[C@@H]2C[C@H]3CCC[C@@H](C2)N3S(=O)(=O)N2CC(C#N)C2)n1` [Form I, 1-(((1R,3s,5S)-3-((4-((5-(hydroxymethyl)-1H-pyrazol-3-yl)amino)-6-methoxypyrimidin-2-yl)(methyl)amino)-9-azabicyclo[3.3.1]nonan-9-yl)sulfonyl)azetidine-3-carbonitrile], for which, in data set [4], the weight gain entry was “less than 0.4%”.

Consider `COc1cc(Nc2cc(CO)[nH]n2)nc(N(C)[C@@H]2C[C@H]3CCC[C@@H](C2)N3S(=O)(=O)N2CC(C#N)C2)n1` [Form II, 1-(((1R,3s,5S)-3-((4-((5-(hydroxymethyl)-1H-pyrazol-3-yl)amino)-6-methoxypyrimidin-2-yl)(methyl)amino)-9-azabicyclo[3.3.1]nonan-9-yl)sulfonyl)azetidine-3-carbonitrile], for which the hygroscopicity result in [4] (5% to 90% relative humidity) is “slightly hygroscopic”. Also, the weight gain entry in data set [4] is “about 1.2%”.

`COc1cc(Nc2cc(CO)[nH]n2)nc(N(C)[C@@H]2C[C@H]3CC[C@@H](C2)N3S(=O)(=O)N2CC(C#N)C2)n1` [Example 1, 1-(((1R,3s,5S)-3-((4-((5-(Hydroxymethyl)-1H-pyrazol-3-yl)amino)-6-methoxypyrimidin-2-yl)(methyl)amino)-8-azabicyclo[3.2.1]octan-8-yl)sulfonyl)azetidine-3-carbonitrile]: in data set [1], the bioavailability was below 5% and the “absorption at the portal vein (Fa %)” value is listed as “less than 25%”. This compound also had a Ki on JAK3 of 1 to 10 nM. Besides, the “decrease in DAI score as compared with vehicle treated animals” value in data set [2] was “did not exhibit a statistically significant decrease”. Further, on Tyk2, the Ki was 0.1 to 1 nM. Also, the IC50 in [3] is 31.6 to 200 nM. Also, the “JAK 1 (pKi)” value at JAK1 is reported as “A (A represents a pKi value≥10 (Ki≤0.1 nM))”. On JAK2, the “JAK 2 (pKi)” value was “A (A represents a pKi value≥10 (Ki≤0.1 nM))”.

As for `COc1cc(Nc2cc(CO)[nH]n2)nc(N(C)[C@@H]2C[C@H]3CCC[C@@H](C2)N3S(C)(=O)=O)n1` [Example 3, (3-((6-methoxy-2-(methyl((1R,3s,5S)-9-(methylsulfonyl)-9-azabicyclo[3.3.1]nonan-3-yl)amino)pyrimidin-4-yl)amino)-1H-pyrazol-5-yl)methanol], in data set [1], the “absorption at the portal vein (Fa %)” value is “greater than 40%”. For the same compound, the Ki on JAK3 (setting [6]) was 1 to 10 nM; on Tyk2 it was 0.1 to 1 nM; at JAK1, 0.1 to 1 nM. In [3], the IC50 was 31.6 to 200 nM. Besides, the “JAK 2 (pKi)” value on JAK2 is “A (A represents a pKi value≥10 (Ki≤0.1 nM))”.

As for `COc1cc(Nc2cc(CO)[nH]n2)nc(N(C)[C@@H]2C[C@H]3CCC[C@@H](C2)N3C(=O)OCC(C)C)n1` [Example 8, Isobutyl (1R,3s,5S)-3-((4-((5-(hydroxymethyl)-1H-pyrazol-3-yl)amino)-6-methoxypyrimidin-2-yl)(methyl)amino)-9-azabicyclo[3.3.1]nonane-9-carboxylate], the Ki on JAK3 (setting [6]) was 1 to 10 nM; at Tyk2, 0.1 to 1 nM; on JAK1, 0.1 to 1 nM; on JAK2 (read-out: JAK 2 (pKi) (converted)) it was 0.1 to 1 nM. For the same compound, the IC50 in data set [3] was 31.6 to 200 nM.

Turning to `C[C@@H]1CCN(C(=O)CC#N)C[C@@H]1N(C)c1ncnc2[nH]ccc12` [tofacitinib, reference compound], in data set [5], the “treatment effect on B and T cell populations” value is recorded as “No treatment effect”.
